{"source": "paper PMC9268305", "about": "“The Pharmacokinetics in Mice and Cell Uptake of Thymus Immunosuppressive Pentapeptide Using LC-MS/MS Analysis” (Molecules, 2022)", "key": {"[1]": {"assay": "Sample-preparation stability/recovery of TIPP in water and murine plasma, with stabilizers", "assay_type": "in vitro ADME, mouse", "protocol": "TIPP stock solutions were separately diluted in TDW or murine plasma at a concentration of 1 μg/mL. Samples (10 μL) were subjected to protein precipitation either immediately or after 10 min incubation at room temperature (around 25 °C). A series of reagents were used for protein precipitation, including MeOH (300 μL) and 2% FA-ACN of different volumes (300, 140, 100, and 70 μL). After brief vortex, the samples were centrifuged at 15,000 rcf at 4 °C for 10 min, and the supernatants were collected for chromatographic analysis. In order to increase the signal intensity of highly water-soluble TIPP in organic solvents, a group of liquid–liquid extraction was carried out to separate the aqueous phase from the organic phase. After treating with 300 μL of 2% FA-ACN, the resulting supernatants (300 μL) were mixed with 500 μL of DCM for backwashing. […] After sample preparation, the processed samples were stored at −80 °C until analysis. Before sampling, the prepared sample was thawed, vortexed, and placed in the autosampler.\nTo choose the optimal stabilizer, the performance of DTT (30 mg/mL), L-AA (10 mg/mL), and PMSF (50 μg/mL) was evaluated. Plasma (90 μL) was mixed with each stabilizer (20 μL), and TIPP (10 μL, 5 μg/mL). The samples were subjected to protein precipitation either immediately or after 10 min incubation at room temperature. For protein precipitation, the samples added with 10 μL of S4 (3 μg/mL) were mixed with 300 μL of 2% FA-ACN and processed as discussed in Section 4.3.1. The aqueous layer was collected for chromatographic analysis. The recovery of TIPP with each stabilizer was determined. Moreover, the stabilizing effect of DTT was further evaluated with different concentrations (2.5, 5, 10, 20, 25, and 40 mg/mL), following the above protocol."}, "[2]": {"system": "RBL-2H3 cells", "assay": "Uptake of TIPP in RBL-2H3 cells by LC-MS/MS (lysates, supernatants, final rinse)", "quoted_text": "(§1) RBL-2H3 cells were obtained from the Cell Resource Center of Shanghai Institutes for Biological Sciences (Shanghai, China) and cultured in complete MEM containing 15% heat-inactivated FBS in a 37 °C incubator (5% CO2 and 95% air). […] To prepare final cell rinse samples, the cells were removed, the supernatant was rinsed with 1 mL of PBS five times, and 90 μL of the final cell rinse was collected and mixed with 10 μL of S4 solution (3 μg/mL) for chromatographic analysis directly. For the preparation of cell lysate samples, the cells (about 10^6 cells) were lysed with 130 μL of RIPA buffer for 30 min on ice, and 100 μL of the cell lysate was collected for sample pre-processing following Section 4.5.1.\n(§2) RBL-2H3 cells were seeded in a 35 mm diameter dish at 8 × 10^5 cells and treated with 200 μg/mL TIPP for different durations (5 min, 10 min, 20 min, 30 min, 40 min, 1 h, 3 h, 6 h, 12 h, and 24 h). Then, the cells were subjected to the pre-processing procedures to prepare cell lysates, cell culture supernatants and the final cell rinse samples (Section 4.5.2). In addition, to study TIPP intracellular degradation, the cells were incubated with TIPP for 40 min, which was followed by incubation with TIPP-free medium for 10, 20, 30, 40, and 60 min, respectively. The cell lysates were then harvested at the above time points and pre-processed as presented in Section 4.5.2."}, "[3]": {"assay": "Stability of TIPP in processed murine plasma samples (LC-MS/MS validation)", "assay_type": "in vitro ADME, mouse", "details": "compared to nominal concentration, mean ± SD, n = 3, in % (unit assumed)", "protocol": "The stability of TIPP in plasma samples was investigated under different conditions. To evaluate autosampler stability, long-term stability, and short-term stability, up to three replicates of LQC and HQC plasma samples were evaluated when the samples were stored at room temperature for 4 h, at 4 °C for 24 h, and at −80 °C for 4 weeks, respectively. Freeze–thaw stability was also assessed in three cycles from −80 to 25 °C. Concentrations were determined using a TIPP calibrator of the respective validation day. Obtained results were compared to nominal concentrations to determine the stability."}, "[4]": {"system": "RBL-2H3 cells", "quoted_text": "as §1, §2"}, "[5]": {"assay": "Elimination of TIPP after intravenous injection in mice (data not shown)", "assay_type": "in vivo"}, "[6]": {"assay": "PK of TIPP via subcutaneous injection in mice", "details": "female, BALB/c, mouse, plasma, sc, 50 mg/kg; for MRT: mice, 50 mg/kg subcutaneous, mean ± SD, n = 8", "quoted_text": "(§3) Whole blood was collected from inner canthus into a tube containing ethylenediaminetetraacetic acid (EDTA) and centrifuged at 5000 rcf for 3 min. Subsequently, 10 μL of plasma samples were diluted with 90 μL TDW. The sample processing process is then executed, and the diluted samples were mixed with 10 μL of S4 solution (3 μg/mL) and 300 μL of 2% FA-ACN in a tube containing 20 μL of DTT solution (25 mg/mL). After centrifugation at 15,000 rcf for 10 min, 300 μL supernatant was transferred to a new tube containing 500 μL of DCM. The mixture was vortexed and centrifuged at 15,000 rcf for 10 min, and the aqueous layer was loaded into the LC-MS/MS system.\n(§4) After 4 h fasting (ad libitum water intake), mice were subcutaneously injected with 50 mg/kg TIPP. At 0.5, 1, 2, 5, 10, 15, 20, and 40 min post administration (eight mice at each time points), blood samples were taken from an inner canthus into tubes containing Na2·EDTA and centrifuged at 5000 rcf for 10 min to obtain plasma. All samples were processed as described in Section 4.5.1 immediately.\n(§5) PK parameters were calculated as mean ± standard deviation (SD). The Cmax and the time to reach Tmax were calculated based on the highest concentration and the corresponding time point, and t1/2 was calculated from C0 to C40. The area under the curve during the 40 min window (AUC0→40) and the extrapolated value (AUC0→∞) were calculated using the trapezoidal rule, and the elimination rate and concentration at 40 min were extrapolated from 40 min to infinity. The CL/F and Vd/F were calculated using the first-order one-compartment model.\n(§6) Analyst® 1.5 software (AB SCIEX) was used for HPLC-MS/MS data processing. A non-compartmental model was employed to fit the PK of TIPP in mice plasma using DAS 2.0 software. […] Results were compared using t test or one-way analysis of variance, which was followed by Dunnett’s multiple comparisons test, with p < 0.05 considered significant."}, "[7]": {"details": "mouse, in vivo, sc, 50 mg/kg", "quoted_text": "as §3, §4, §5, §6"}, "[8]": {"system": "RBL-2H3 cells", "assay": "Confocal visualization of cellular localization of FITC-TIPP", "assay_type": "cell-based, rat", "details": "confocal microscope", "protocol": "RBL-2H3 cells (4 × 10^4) were seeded in a 35 mm confocal dish and treated with 367 μg/mL FITC-TIPP for 0, 5, 10, 20, 30, 40, and 60 min, respectively. Then, the cells were fixed with 4% paraformaldehyde solution for 10 min and permeabilized with 0.1% Triton-100 for 5 min, which was followed by nuclear staining in a dark place with Hoechst 33342 for 5 min. Finally, the cells were washed, stained with DiI dye solution for 10 min, rinsed with PBS three times, and analyzed with a confocal microscope."}, "[9]": {"details": "-SH group substituted with the -OH group; cited from earlier work", "from_the_text": "The pharmacokinetic properties in animals and its action mechanism also need to be studied using reliable, accurate, and sensitive methods in order to develop TIPP into a new drug. Short peptides can be analyzed using fluorescence labeling, immunoassay, and liquid chromatography-tandem mass spectrometry (LC-MS/MS). Although the visualization and quantification of fluorescently labeled peptides are widely used, there are still some drawbacks. One such flaw is that fluorescent labeling might change the structure of small molecules, resulting in the alteration of physical and chemi ..."}}, "note": "“Also recorded” adds a separate entry of the source. Where a SMILES comes first, the peptide text is derived from it. The star is where a group is joined. FITC = O=C1OC2(c3ccc(O)cc3Oc3cc(O)ccc32)c2ccc(NC(=S)*)cc21; Ahx = NCCCCCC(=O)O"}
{"compound": "C[C@H](N)C(=O)N[C@@H](CCC(=O)O)C(=O)N[C@@H](Cc1c[nH]c2ccccc12)C(=O)N[C@@H](CS)C(=O)N1CCC[C@H]1C(=O)O", "note": "(H-AEWCP-OH)", "values": [{"measurement": "Stability of TIPP in aqueous solution", "setting": "[1]; 1 μg/mL in TDW, 10 min at room temperature (around 25 °C), protein precipitation with only organic reagents, LC-MS/MS intensity", "result": "remained stable"}, {"measurement": "Stability of TIPP in plasma without stabilizer", "setting": "[1]; 1 μg/mL in murine plasma, 10 min at room temperature (around 25 °C), protein precipitation with only organic reagents, LC-MS/MS intensity", "result": "intensity decreased significantly"}, {"measurement": "Average recovery of TIPP in plasma with DTT as stabilizer", "setting": "[1]; murine plasma, 20 mg/mL DTT, immediately or after 10 min at room temperature, LC-MS/MS, n = 3", "result": "higher than 95%"}, {"measurement": "Intracellular concentration of TIPP (cell lysate) at 20 min", "setting": "[2]; 200 μg/mL TIPP, 20 min, cells rinsed five times with PBS, RIPA lysate, LC-MS/MS, n = 3", "result": "24.57 ± 4.53", "unit": "ng/mL"}, {"measurement": "Concentration of TIPP in cell culture supernatant at 12 h", "setting": "[2]; 200 μg/mL TIPP, MEM with 15% FBS, 37 °C, 12 h, LC-MS/MS, n = 3", "result": "below the detection limit"}, {"measurement": "Concentration of TIPP in PBS rinse samples", "setting": "[2]; 200 μg/mL TIPP, all PBS rinse samples, detection limit, LC-MS/MS", "result": "< 0.1", "unit": "ng/mL"}, {"measurement": "Residual TIPP in the final cell rinse PBS (in words)", "setting": "[2]; 200 μg/mL TIPP, fifth PBS rinse, LC-MS/MS", "result": "No residual TIPP was detected"}, {"measurement": "Intracellular concentration of TIPP (cell lysate), plateau", "setting": "[2]; 200 μg/mL TIPP, from 30 min onwards, RIPA lysate, LC-MS/MS, n = 3", "result": "38.62 ± 2.47", "unit": "ng/mL"}, {"measurement": "Intracellular TIPP about 30 min after substituting TIPP-free medium (in words)", "setting": "[2]; 40 min with 200 μg/mL TIPP, then TIPP-free medium for 30 min, cell lysates", "result": "almost eliminated; also recorded: decreased to near LLOQ"}, {"measurement": "Stability in murine plasma, 4 weeks at −80 °C, HQC", "setting": "[3]; HQC 4000 ng/mL, 4 weeks at −80 °C", "result": "90.70 ± 0.12"}, {"measurement": "Stability in murine plasma, 4 h at room temperature, HQC", "setting": "[3]; HQC 4000 ng/mL, 4 h at room temperature", "result": "98.02 ± 0.04"}, {"measurement": "Stability in murine plasma, 24 h at 4 °C, HQC", "setting": "[3]; HQC 4000 ng/mL, autosampler 24 h at 4 °C", "result": "99.35 ± 0.84"}, {"measurement": "Stability in murine plasma, three freeze-thaw cycles, HQC", "setting": "[3]; HQC 4000 ng/mL, three freeze-thaw cycles at −80–25 °C", "result": "106.00 ± 0.16"}, {"measurement": "Stability in murine plasma, 4 weeks at −80 °C, LQC", "setting": "[3]; LQC 50 ng/mL, 4 weeks at −80 °C", "result": "90.70 ± 1.61"}, {"measurement": "Stability in murine plasma, 24 h at 4 °C, LQC", "setting": "[3]; LQC 50 ng/mL, autosampler 24 h at 4 °C", "result": "103.64 ± 2.00"}, {"measurement": "Stability in murine plasma, three freeze-thaw cycles, LQC", "setting": "[3]; LQC 50 ng/mL, three freeze-thaw cycles at −80–25 °C", "result": "94.23 ± 0.02"}, {"measurement": "Intracellular t1/2 of TIPP", "setting": "[4]", "result": 5.596, "unit": "min"}, {"measurement": "Elimination after intravenous injection", "setting": "[5]", "result": "rapid elimination"}, {"measurement": "AUC(0-inf)", "setting": "[6]", "result": 136, "unit": "ng·h/mL"}, {"measurement": "AUC(0-t)", "setting": "[6]", "result": 133, "unit": "ng·h/mL"}, {"measurement": "Cmax", "setting": "[6]", "result": "623 ± 67.1", "unit": "ng/mL"}, {"measurement": "Tmax", "setting": "[6]", "result": 10, "unit": "min"}, {"measurement": "Vd/F", "setting": "[6]", "result": "54.4 ± 20.9", "unit": "L/kg"}, {"measurement": "half-life", "setting": "[6]", "result": "5.99 ± 1.82", "unit": "min"}, {"measurement": "level at 40 min", "setting": "[6]", "result": "~20", "unit": "ng/mL"}, {"measurement": "MRT", "setting": "[6]; MRT(0–t)", "result": 11.3, "unit": "min"}, {"measurement": "MRT", "setting": "[6]; MRT(0–∞)", "result": 12.5, "unit": "min"}, {"measurement": "CL/F (apparent clearance rate)", "setting": "[7]", "result": "380 ± 87", "unit": "L/h/kg"}]}
{"compound": "C[C@H](NC(=O)CCCCCNC(=S)Nc1ccc2c(c1)C(=O)OC21c2ccc(O)cc2Oc2cc(O)ccc21)C(=O)N[C@@H](CCC(=O)O)C(=O)N[C@@H](Cc1c[nH]c2ccccc12)C(=O)N[C@@H](CS)C(=O)N1CCC[C@H]1C(=O)O", "note": "[FITC-TIPP] ({FITC-Ahx}-AEWCP-OH)", "values": [{"measurement": "Co-localization of FITC-TIPP with RBL-2H3 cells", "setting": "[8]; 367 μg/mL FITC-TIPP (same molar concentration as 200 μg/mL TIPP), fluorescence", "result": "co-localized with RBL-2H3 cells at 10 min"}, {"measurement": "Fluorescent signal of FITC-TIPP in cells over time", "setting": "[8]; 367 μg/mL FITC-TIPP, after 30 min, Hoechst 33342 and DiI staining", "result": "remained steady after 30 min with significant intranuclear enrichment"}]}
{"compound": "AEWSP [S4, analog of TIPP (AEWSP), used as the internal standard of the LC-MS/MS method]", "values": [{"measurement": "Stability compared with TIPP", "setting": "[9]", "result": "significantly improved"}]}
